# Tests used:
# tumor cells = settings: Non-Patent Literature 5; cited from earlier work
# [1] = test system: liver cancer which has been treated; settings: Non-Patent Literature 6 and 7, cited from earlier work
# [2] = cited from earlier work
# leukemia cells = settings: in vitro, Patent Literature 1; cited from earlier work
# [3] = test system: liver cancer (hepatocellular carcinoma) in female virus cirrhosis patients; assay: Randomized clinical trial with 7-year follow-up: development of liver cancer in virus cirrhosis patients; assay type: in vivo, human; settings: for Adjusted odds ratio for development of HCC (treatment group to control group): multivariate analysis adjusted for age, ALT, albumin, total bilirubin, platelet count, AFP, history of IFN-α, 95% CI 0.016-0.992, P 0.0491; for Crude odds ratio for development of HCC (treatment group to control group): univariate analysis, 95% CI 0.042-0.913, P 0.038
# Protocol: A primary test was conducted targeting 50 female virus cirrhosis patients.
# The diagnosis of cirrhosis was based on histological examination of liver specimens obtained by laparoscopy or needle biopsy performed under ultrasonic guidance.
# Half were randomly assigned to receive 45 mg/day of vitamin K2 (Glakay;
# Eisai Co., Tokyo, Japan) p.o., and half were assigned to the control group. Randomization was performed by placing the treatment assignments in sealed envelopes.
# At the end of the first study, 21 patients in the treatment group and 19 patients in the control group agreed to participate in a longer trial. These patients were infected with the hepatitis C virus except for one patient in each group that had hepatitis B.
# The clinical trial was conducted in accordance with the Helsinki Declaration and was approved by our ethics committee.
# Statistical analysis was carried out with SAS software (version 8.12). The χ2 test was used to assess the homogeneity of groups. Cumulative incidences were plotted by the Kaplan-Meier method, and statistical significance of differences was analyzed by the log-rank test. Cox's regression analysis was used for univariate and multivariate analysis. In both studies, the two groups were similar with respect to age, the Child-Pugh stage, and the other clinical findings (See Table 1).
SMILES,induction of apoptosis (tumor cells),recurrence of treated liver cancer ([1]; patients who already had cancer),survival percentage ([1]; patients with treated liver cancer),solubility in water [2],differentiation induction activity (leukemia cells),Adjusted odds ratio for development of HCC (treatment group to control group) ([3]; listed as VK2),Adjusted odds ratio for development of HCC (treatment group to control group) ([3]; listed as vitamin K2),"cumulative incidence percentage of liver cancer patients versus control group ([3]; treatment group, 45 mg/day p.o., 7-year follow-up, Kaplan-Meier (FIG. 1))","patients who developed liver cancer ([3]; treatment group, 45 mg/day p.o., 7-year follow-up, control group 9 of 19)",Crude odds ratio for development of HCC (treatment group to control group) ([3]; listed as VK2),Crude odds ratio for development of HCC (treatment group to control group) ([3]; listed as vitamin K2)
CC(C)=CCC/C(C)=C/CC/C(C)=C/CC/C(C)=C/CO [geranylgeraniol],potent inducer of apoptosis in tumor cells,,,,,,,,,,
"CC(C)=CCC/C(C)=C/CC/C(C)=C/CC/C(C)=C/CC1=C(C)C(=O)c2ccccc2C1=O [menatetrenone, 2-methyl-3-tetraprenyl-1,4-naphthoquinone]",,suppresses recurrence of liver cancer,heightens the survival percentage,nearly insoluble in water,differentiation induction activity in leukemia cells,0.126,0.126 (0.016 to 0.992),much smaller than that in the control group,2 of 21,0.195,0.195 (from 0.042 to 0.913)

# Source: US20070155841A1, “Preventive agent for carcinogenesis of liver cancer containing quinone-based compound as active ingredient” (Eisai Co., Ltd., priority 2004, published 2007)
